What all share (type): toxicity, cell-based
The nature of series [1]: MMV: MTT Cytotoxicity Assay Day 3 pi, U87-CD4-CCR5 cells, % cell death @ 5mM compound. The note with it: human, u87-cd4-ccr5, 5000 µM.
Series [2] in a line: MMV: MTT Cytotoxicity Assay Day 7 pi of Assay #11 (NO washout), U87-CD4-CXCR4 cells, % cell death @ 5mM compound. The note with it: human, u87-cd4-cxcr4, 5000 µM.
Series [3] in a line: MMV: MTT Cytotoxicity Assay Day 7 pi of Assay #6 (compound washed out Day 1 pi), U87-CD4-CCR5 cells, % cell death @ 5mM compound. Particulars: human, u87-cd4-ccr5, 5000 µM.
The nature of series [4]: MMV: MTT Cytotoxicity Assay Day 7 pi of Assay #7 (compound washed out Day 1 pi), U87-CD4-CXCR4 cells, % cell death @ 5mM compound. Particulars: human, u87-cd4-cxcr4, 5000 µM.
Series [5] can be described thus: MMV: MTT Cytotoxicity Assay Day 3 pi, U87-CD4-CXCR4 cells, % cell death @ 5mM compound. The note with it: human, u87-cd4-cxcr4, 5000 µM.
Series [6] can be described thus: MMV: MTT Cytotoxicity Assay Day 7 pi of Assay #10 (NO washout), U87-CD4-CCR5 cells, % cell death @ 5mM compound. The note with it: human, u87-cd4-ccr5, 5000 µM.

On to `Oc1ccccc1CN1CCC2(CCCN(Cc3ccccc3F)C2)C1` (stereo not given), for which the “% Cell Death” value in series [1] is recorded as -2; in series [2], 39; in series [3], 36; in series [4] it was 1; in series [5], 15; in series [6], 44.

`CCc1ccc(Nc2cc(C)c3ccc(O)cc3n2)cc1.Cl`: the “% Cell Death” value in series [1] was found to be 105; in series [2] it was 102; in series [3], 101; in series [4], 95; in series [5], 101; in series [6], 130.

For the compound `COc1ccc2nc(C)cc(Nc3ccc(Cl)cc3)c2c1`, the “% Cell Death” value in series [1] is listed as 106; in series [2], 117; in series [3], 103; in series [4], 90; in series [5], 100; in series [6], 121.

Take `CCOc1ccc(CCNC(=O)c2cccs2)cc1OCC`: the “% Cell Death” value is 45 in series [1]; -9 in series [2]; -20 in series [3]; -3 in series [4]; 30 in series [5]; 2 in series [6].

As for `CCCCN(CCCC)S(=O)(=O)c1ccc(NC(=O)c2ccco2)cc1`, the “% Cell Death” value in series [1] was 58; in series [2] it was 39; in series [3], 36; in series [4], 41; in series [5], 45; in series [6], 74.

In the case of `Nc1ccc(-c2nc3cc(Cc4ccc5[nH]c(-c6ccc(N)cc6)nc5c4)ccc3[nH]2)cc1`, the “% Cell Death” value is given as 88 in series [1]; 110 in series [2]; 69 in series [3]; 82 in series [4]; 57 in series [5]; 98 in series [6].

Take `O=C1CC(O)(C(F)(F)C(F)(F)F)Oc2ccccc21` (stereo not given): the “% Cell Death” value in series [1] was -14; in series [2] it was 35; in series [3] it was 4; in series [4], -15; in series [5] it was 32; in series [6] it was 17.

`COc1cc(CNCCc2ccc(Cl)cc2)cc(OC)c1O`: the “% Cell Death” value is on record as -11 in series [1]; 91 in series [2]; -15 in series [3]; 11 in series [4]; 35 in series [5]; 18 in series [6].

In the case of `Cc1ccc(N2C(=O)C3C(C2=O)C2(c4ccccc4)C(=O)C3(c3ccccc3)C(c3ccccc3)=C2c2ccccc2)cc1` (stereo not given), the “% Cell Death” value in series [1] was -31; in series [2], -35; in series [3], 0; in series [4], 5; in series [5], 36; in series [6], 33.

Take `O=c1nc(C=Cc2ccc(Br)cc2)oc2ccccc12`: the “% Cell Death” value in series [1] is listed as 17; in series [2] it was -17; in series [3] it was -7; in series [4] it was 24; in series [5], 23; in series [6] it was 35.

In the case of `O=C(CCl)NCCOc1ccc(Cl)cc1Cl`, the “% Cell Death” value in series [1] is recorded as 15; in series [2], 6; in series [3] it was -19; in series [4] it was -8; in series [5], 28; in series [6], 12.

`Nc1nc(Nc2cccc(F)c2)nc2ccccc12`: the “% Cell Death” value is recorded as 42 in series [1]; 36 in series [2]; -19 in series [3]; -13 in series [4]; 38 in series [5]; 45 in series [6].

As to `OC1=C2C(=Nc3ccccc3SC2c2ccc(Br)cc2)c2ccccc21` (stereo not given), the “% Cell Death” value is listed as 11 in series [1]; 0 in series [2]; -10 in series [3]; 7 in series [4]; 31 in series [5]; 30 in series [6].

Regarding `COc1cc(OC)cc(N2C(=O)N(Cc3ccc(C(C)(C)C)cc3)c3ccccc3S2(=O)=O)c1`, the “% Cell Death” value is reported as 34 in series [1]; 64 in series [2]; 34 in series [3]; -10 in series [4]; 36 in series [5]; 39 in series [6].

As to `O=C(Nc1ccc(Cl)cc1C(=O)Nc1ccncc1)c1ccc(Cl)cc1Cl`, the “% Cell Death” value in series [1] stood at 0; in series [2] it was 87; in series [3] it was 50; in series [4] it was 75; in series [5], 21; in series [6], 15.

Regarding `CCOC(=O)c1c(NC(=O)c2ccccc2)sc2c(O)c(CN(CC)CC)ccc12`, the “% Cell Death” value in series [1] is recorded as -7; in series [2], 25; in series [3] it was -2; in series [4] it was 40; in series [5], -8; in series [6], 25.

As to `CCC(O)c1ccc(Br)cc1NC(=O)c1cccc(Cl)c1` (stereo not given), the “% Cell Death” value in series [1] is reported as -44; in series [2], -37; in series [3], -24; in series [4] it was 28; in series [5], 11; in series [6] it was 6.

Regarding `COc1ccc2sc(N(Cc3cccnc3)C(=O)c3ccc(C#N)cc3)nc2c1`, the “% Cell Death” value was -25 in series [1]; -31 in series [2]; 2 in series [3]; -25 in series [4]; 29 in series [5]; 2 in series [6].

For `COc1cc(OC)cc(C(=O)Nc2ccc(-c3nc4ccccc4[nH]3)cc2)c1`, the “% Cell Death” value in series [1] turned out to be 47; in series [2], 116; in series [3], 59; in series [4] it was 55; in series [5] it was 63; in series [6], 115.

For the compound `Cc1[nH]c(-c2ccc(F)cc2)cc1C(=O)NC1CCN(Cc2ccccc2)CC1`, the “% Cell Death” value in series [1] was 65; in series [2] it was 29; in series [3], 52; in series [4] it was 6; in series [5], 41; in series [6], 44.

`COc1cc(-c2nc(-c3ccccc3)c(-c3ccccc3)[nH]2)cc(OC)c1O`: the “% Cell Death” value in series [1] stood at 104; in series [2] it was 105; in series [3], 88; in series [4], 84; in series [5] it was 52; in series [6], 120.

As for `COc1ccc2nc(C)cc(Nc3ccccc3O)c2c1`, the “% Cell Death” value is reported as 5 in series [1]; -34 in series [2]; 14 in series [3]; -12 in series [4]; 30 in series [5]; 6 in series [6].

As to `CCN(CC)c1ccc(NC(=O)c2cccs2)cc1`, the “% Cell Death” value in series [1] is recorded as 94; in series [2], 102; in series [3], 18; in series [4], 43; in series [5] it was 56; in series [6], 106.

As for `CCOc1ccc(-c2nonc2NC(=O)c2cccc(C)c2)cc1OCC`, the “% Cell Death” value in series [1] was -8; in series [2] it was -48; in series [3], -8; in series [4], -14; in series [5], 13; in series [6], 19.

Take `Cl.N=c1n(CCN2CCCCC2)c2ccccc2n1CC(O)c1cccc(Br)c1` (stereo not given): the “% Cell Death” value is 2 in series [1]; 8 in series [2]; 10 in series [3]; -20 in series [4]; 27 in series [5]; 11 in series [6].

Regarding `Brc1ccc(Nc2nc3ccccc3nc2Nc2ccc(Br)cc2)cc1`, the “% Cell Death” value is on record as 15 in series [1]; -26 in series [2]; -14 in series [3]; -10 in series [4]; 20 in series [5]; 28 in series [6].

`O=C(Nc1ccc(-c2nc3cc4ccccc4cc3[nH]2)cc1)c1cccc(Br)c1`: the “% Cell Death” value is reported as 16 in series [1]; -33 in series [2]; 13 in series [3]; -24 in series [4]; 42 in series [5]; 7 in series [6].

`CCCN(CCC)CC(O)COc1ccccc1C(=O)Nc1ccccc1` (stereo not given): the “% Cell Death” value in series [1] was 33; in series [2], -27; in series [3], -14; in series [4] it was 14; in series [5] it was 22; in series [6], 34.

For the compound `CC1CN(C(=O)c2sc3ccccc3c2Cl)CC(C)O1` (stereo not given), the “% Cell Death” value in series [1] was determined as 107; in series [2], 105; in series [3], 7; in series [4], 45; in series [5], 47; in series [6], 124.

As for `Cc1nc2ccccc2c(O)c1CC=C(Cl)Cl`, the “% Cell Death” value in series [1] is 19; in series [2], -3; in series [3] it was -2; in series [4], 20; in series [5], 30; in series [6] it was 26.

For the origin of these results see ChEMBL document CHEMBL3301472, “MMV Malaria Box HIV and cytotoxicity screening”.
